Experimental data from PubChem BioAssay AID220 (DTP/NCI, 2004).
“And” between values parts separate entries of the source, which are not always exact repeats. Equal entries are not always repeated. Records with an inconclusive call do not appear.

System: CD8F1 mice, subcutaneous mammary adenocarcinoma, T/C%
Assay: NCI In Vivo Anticancer Drug Screen. Data for tumor model Mammary Adenocarcinoma CD8F1 (subcutaneous) in CD8F1
Settings: higher = larger tumour
Method in brief: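 Transplantable tumors were established in mice, animals were dosed with compound or vehicle, and survival or tumor size was then measured in both groups. The treated result was divided by the control result.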

[1] = endpoint: median tumor weight (est.), dose: 6.25 mg/kg/injection, schedule: Q07DX005 (ip), vehicle: saline
[2] = endpoint: median tumor weight (est.), dose: 12.5 mg/kg/injection, schedule: Q07DX005 (ip), vehicle: saline
[3] = endpoint: median tumor weight (est.), dose: 25.0 mg/kg/injection, schedule: Q07DX005 (ip), vehicle: saline
[4] = endpoint: median tumor weight (est.), dose: 50.0 mg/kg/injection, schedule: Q07DX005 (ip), vehicle: saline
[5] = endpoint: median tumor weight (est.), dose: 100.0 mg/kg/injection, schedule: Q07DX005 (ip), vehicle: saline
[6] = endpoint: median tumor weight (est.), dose: 50.0 mg/kg/injection, schedule: Q07DX005 (ip), vehicle: saline with Tween-80
[7] = endpoint: median tumor weight (est.), dose: 200.0 mg/kg/injection, schedule: Q07DX005 (ip), vehicle: saline with Tween-80
[8] = endpoint: median tumor weight (est.), dose: 400.0 mg/kg/injection, schedule: Q07DX005 (ip), vehicle: saline with Tween-80

CNc1nc(N(C)C)nc(N(C)C)n1
T/C (endpoint: median tumor weight (est.), dose: 3.12 mg/kg/injection, schedule: Q07DX005 (ip), vehicle: saline): 89 % of control | T/C [1]: 111 % of control | T/C [2]: 75 % of control | T/C (endpoint: median tumor weight (est.), dose: 12.5 mg/kg/injection, schedule: Q07DX005 (ip), vehicle: water): 65 % of control | T/C [3]: 108 % of control | T/C (endpoint: median tumor weight (est.), dose: 25.0 mg/kg/injection, schedule: Q07DX005 (ip), vehicle: water): 94 % of control | T/C [4]: 63 % of control | T/C (endpoint: median tumor weight (est.), dose: 50.0 mg/kg/injection, schedule: Q07DX005 (ip), vehicle: water): 13 % of control | T/C (endpoint: median tumor weight (est.), dose: 74.0 mg/kg/injection, schedule: Q07DX005 (ip), vehicle: other): 33 % of control | T/C [5]: 48 % of control | T/C (endpoint: median tumor weight (est.), dose: 100.0 mg/kg/injection, schedule: Q07DX005 (ip), vehicle: water): 28 % of control | T/C (endpoint: median tumor weight (est.), dose: 148.0 mg/kg/injection, schedule: Q07DX005 (ip), vehicle: other): 47 % of control | T/C (endpoint: median tumor weight (est.), dose: 222.0 mg/kg/injection, schedule: Q07DX005 (ip), vehicle: other): 7 % of control

CCCCCCCCCCS(=O)CC(CO)NC(=O)/C=C/c1c(C)[nH]c(=O)[nH]c1=O (configuration not stated)
T/C (endpoint: median tumor weight (est.), dose: 0.75 mg/kg/injection, schedule: Q07DX005 (ip), vehicle: saline with Tween-80): 85 % of control | T/C (endpoint: median tumor weight (est.), dose: 1.5 mg/kg/injection, schedule: Q07DX005 (ip), vehicle: saline with Tween-80): 100 % of control and 106 % of control | T/C (endpoint: median tumor weight (est.), dose: 3.0 mg/kg/injection, schedule: Q07DX005 (ip), vehicle: saline with Tween-80): 124 % of control and 113 % of control | T/C (endpoint: median tumor weight (est.), dose: 6.0 mg/kg/injection, schedule: Q07DX005 (ip), vehicle: saline with Tween-80): 76 % of control | T/C (endpoint: median tumor weight (est.), dose: 12.0 mg/kg/injection, schedule: Q07DX005 (ip), vehicle: saline with Tween-80): 23 % of control | T/C (endpoint: median tumor weight (est.), dose: 48.0 mg/kg/injection, schedule: Q07DX005 (ip), vehicle: saline with Tween-80): 76 % of control

CC(/C=N/N=C(N)N)=N\N=C(N)N
T/C [1]: 100 % of control | T/C [2]: 85 % of control | T/C [3]: 110 % of control | T/C [5]: 67 % of control

O=c1cc(CCl)[nH]nc1CCl
T/C (endpoint: median tumor weight (est.), dose: 3.12 mg/kg/injection, schedule: Q07DX005 (ip), vehicle: saline with Tween-80): 86 % of control and 88 % of control | T/C (endpoint: median tumor weight (est.), dose: 6.25 mg/kg/injection, schedule: Q07DX005 (ip), vehicle: saline with Tween-80): 96 % of control and 103 % of control | T/C (endpoint: median tumor weight (est.), dose: 12.5 mg/kg/injection, schedule: Q07DX005 (ip), vehicle: saline with Tween-80): 92 % of control and 106 % of control | T/C [6]: 55 % of control

COC1=C(N)C(=O)c2nc(-c3nc(C(=O)O)c(C)c(-c4ccc(OC)c(OC)c4O)c3N)ccc2C1=O
T/C (endpoint: median tumor weight (est.), dose: 0.1 mg/kg/injection, schedule: Q07DX005 (ip), vehicle: Klucel (hydroxypropylcellulose) (HPC)): 69 % of control | T/C (endpoint: median tumor weight (est.), dose: 0.1 mg/kg/injection, schedule: Q07DX005 (ip), vehicle: saline): 16 % of control and 34 % of control | T/C (endpoint: median tumor weight (est.), dose: 0.12 mg/kg/injection, schedule: Q07DX005 (ip), vehicle: Klucel (hydroxypropylcellulose) (HPC)): 10 % of control | T/C (endpoint: median tumor weight (est.), dose: 0.2 mg/kg/injection, schedule: Q07DX005 (ip), vehicle: Klucel (hydroxypropylcellulose) (HPC)): 12 % of control | T/C (endpoint: median tumor weight (est.), dose: 0.2 mg/kg/injection, schedule: Q07DX005 (ip), vehicle: saline): 11 % of control and 20 % of control | T/C (endpoint: median tumor weight (est.), dose: 0.4 mg/kg/injection, schedule: Q07DX005 (ip), vehicle: Klucel (hydroxypropylcellulose) (HPC)): 7 % of control | T/C (endpoint: median tumor weight (est.), dose: 0.4 mg/kg/injection, schedule: Q07DX005 (ip), vehicle: saline): 3 % of control | T/C (endpoint: median tumor weight change, dose: 0.5 mg/kg/injection, schedule: Q01DX001 (ip), vehicle: Klucel (hydroxypropylcellulose) (HPC)): 32 % of control and 41 % of control

Nc1nc2c(ncn2C2OC(CO)C(O)C2O)c(=O)[nH]1 (configuration not stated)
T/C (endpoint: median tumor weight (est.), dose: 100.0 mg/kg/injection, schedule: Q07DX005 (ip), vehicle: saline with Tween-80): 86 % of control | T/C [7]: 92 % of control | T/C [8]: 110 % of control | T/C (endpoint: median tumor weight (est.), dose: 800.0 mg/kg/injection, schedule: Q07DX005 (ip), vehicle: saline with Tween-80): 88 % of control | T/C (endpoint: median tumor weight (est.), dose: 1600.0 mg/kg/injection, schedule: Q07DX005 (ip), vehicle: saline with Tween-80): 103 % of control | T/C (endpoint: median tumor weight (est.), dose: 3200.0 mg/kg/injection, schedule: Q07DX005 (ip), vehicle: saline with Tween-80): 84 % of control

C[n+]1c2cc(N)ccc2cc2ccc(N)cc21
T/C [1]: 104 % of control | T/C [2]: 211 % of control

[N-]=[N+]=[N-]
T/C (endpoint: median tumor weight change, dose: 3.0 mg/kg/injection, schedule: Q01DX001 (ip), vehicle: saline): 72 % of control | T/C (endpoint: median tumor weight change, dose: 6.0 mg/kg/injection, schedule: Q01DX001 (ip), vehicle: saline): 104 % of control | T/C (endpoint: median tumor weight change, dose: 12.0 mg/kg/injection, schedule: Q01DX001 (ip), vehicle: saline): 122 % of control | T/C (endpoint: median tumor weight change, dose: 24.0 mg/kg/injection, schedule: Q01DX001 (ip), vehicle: saline): 66 % of control

CN(N=O)C(N)=O
T/C (endpoint: median tumor weight (est.), dose: 3.12 mg/kg/injection, schedule: Q07DX005 (ip), vehicle: suspension in saline): 156 % of control | T/C [2]: 103 % of control | T/C (endpoint: median tumor weight (est.), dose: 12.5 mg/kg/injection, schedule: Q07DX005 (ip), vehicle: suspension in saline): 104 % of control | T/C [3]: 81 % of control | T/C (endpoint: median tumor weight (est.), dose: 25.0 mg/kg/injection, schedule: Q07DX005 (ip), vehicle: suspension in saline): 100 % of control | T/C [4]: 39 % of control | T/C (endpoint: median tumor weight (est.), dose: 50.0 mg/kg/injection, schedule: Q07DX005 (ip), vehicle: suspension in saline): 31 % of control | T/C (endpoint: median tumor weight change, dose: 15.62 mg/kg/injection, schedule: Q01DX001 (ip), vehicle: Klucel (hydroxypropylcellulose) (HPC)): 66 % of control | T/C (endpoint: median tumor weight change, dose: 16.0 mg/kg/injection, schedule: Q01DX001 (ip), vehicle: saline): 54 % of control | T/C (endpoint: median tumor weight change, dose: 31.0 mg/kg/injection, schedule: Q01DX001 (ip), vehicle: saline): 29 % of control | T/C (endpoint: median tumor weight change, dose: 31.25 mg/kg/injection, schedule: Q01DX001 (ip), vehicle: Klucel (hydroxypropylcellulose) (HPC)): 67 % of control | T/C (endpoint: median tumor weight change, dose: 31.25 mg/kg/injection, schedule: Q01DX001 (ip), vehicle: suspension in saline): 72 % of control | T/C (endpoint: median tumor weight change, dose: 62.0 mg/kg/injection, schedule: Q01DX001 (ip), vehicle: saline): 38 % of control | T/C (endpoint: median tumor weight change, dose: 62.5 mg/kg/injection, schedule: Q01DX001 (ip), vehicle: Klucel (hydroxypropylcellulose) (HPC)): 14 % of control | T/C (endpoint: median tumor weight change, dose: 62.5 mg/kg/injection, schedule: Q01DX001 (ip), vehicle: suspension in saline): 57 % of control | T/C (endpoint: median tumor weight change, dose: 125.0 mg/kg/injection, schedule: Q01DX001 (ip), vehicle: saline): -59 % of control | T/C (endpoint: median tumor weight change, dose: 125.0 mg/kg/injection, schedule: Q01DX001 (ip), vehicle: suspension in saline): -2 % of control

O=C(N/N=C\c1cc(Br)cc(Br)c1O)N/N=C/c1cc(Br)cc(Br)c1O
T/C [6]: 60 % of control | T/C [7]: 100 % of control | T/C [8]: 391 % of control

CC[C@H]1CN2CCc3cc(OC)c(OC)cc3[C@@H]2C[C@@H]1C[C@H]1NCCc2cc(OC)c(OC)cc21
T/C (endpoint: mean tumor weight, dose: 0.88 mg/kg/injection, schedule: Q07DX006 (ip), vehicle: saline): 46 % of control | T/C (endpoint: mean tumor weight, dose: 1.75 mg/kg/injection, schedule: Q07DX005 (ip), vehicle: saline): 163 % of control | T/C (endpoint: mean tumor weight, dose: 1.75 mg/kg/injection, schedule: Q07DX006 (ip), vehicle: saline): 65 % of control | T/C (endpoint: mean tumor weight, dose: 3.5 mg/kg/injection, schedule: Q07DX005 (ip), vehicle: saline): 258 % of control | T/C (endpoint: mean tumor weight, dose: 3.5 mg/kg/injection, schedule: Q07DX006 (ip), vehicle: saline): 42 % of control | T/C (endpoint: mean tumor weight, dose: 7.0 mg/kg/injection, schedule: Q07DX005 (ip), vehicle: saline): 153 % of control | T/C (endpoint: mean tumor weight, dose: 7.0 mg/kg/injection, schedule: Q07DX006 (ip), vehicle: saline): 73 % of control | T/C (endpoint: mean tumor weight, dose: 14.0 mg/kg/injection, schedule: Q07DX005 (ip), vehicle: saline): 156 % of control | T/C (endpoint: mean tumor weight, dose: 14.0 mg/kg/injection, schedule: Q07DX006 (ip), vehicle: saline): 96 % of control | T/C (endpoint: median tumor weight (est.), dose: 1.75 mg/kg/injection, schedule: Q07DX005 (ip), vehicle: saline): 214 % of control | T/C (endpoint: median tumor weight (est.), dose: 3.5 mg/kg/injection, schedule: Q07DX005 (ip), vehicle: saline): 166 % of control | T/C (endpoint: median tumor weight (est.), dose: 7.0 mg/kg/injection, schedule: Q07DX005 (ip), vehicle: saline): 92 % of control | T/C (endpoint: median tumor weight (est.), dose: 28.0 mg/kg/injection, schedule: Q07DX005 (ip), vehicle: saline): 86 % of control

CN(C)N=Nc1cccc(C(N)=O)c1
T/C (endpoint: median tumor weight (est.), dose: 20.0 mg/kg/injection, schedule: Q07DX005 (ip), vehicle: Klucel (hydroxypropylcellulose) (HPC)): 80 % of control | T/C (endpoint: median tumor weight (est.), dose: 160.0 mg/kg/injection, schedule: Q07DX005 (ip), vehicle: Klucel (hydroxypropylcellulose) (HPC)): 54 % of control
